Test results published in PubChem BioAssay (NCI).
Values joined by “and” are separate entries in the source; they are usually repeats but may differ in a detail not shown here. Equal entries are not always repeated.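 How tested: cells in 96-well plates exposed to compound for 48 hours at five concentrations. Abbreviation: GI50, concentration required for 50% inhibition of growth. The concentration for full growth arrest is given as TGI.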

How the values were obtained:
Test in all cases: growth of human tumour cells (NCI), 48 h
[1] = test system: COLO 205 colon
[2] = test system: HOP-92 NSCLC
[3] = test system: SN12C renal
[4] = test system: SR leukemia
[5] = test system: NCI-H23 lung
[6] = test system: EKVX NSCLC
[7] = test system: NCI-H226 lung
[8] = test system: MDA-MB-435
[9] = test system: UACC-257 melanoma
[10] = test system: HT29 colon

Row | Structure (SMILES) | GI50 [1] [µM] | TGI [1] | GI50 [2] [µM] | TGI [2] | GI50 [3] [µM] | TGI [3] | GI50 [4] [µM] | GI50 [5] [µM] | TGI [5] | GI50 [6] [µM] | TGI [6] | GI50 [7] [µM] | TGI [7] | GI50 [8] [µM] | TGI [8] | GI50 [9] [µM] | TGI [9] | GI50 [10] [µM] | TGI [10] | TGI [4]
1 | CCCCCCCCCCCCOC1C(C(COC2OC(C(O)CO)C3OC(C)(C)OC23)OC(=O)Nc2ccccc2)OC2OC(C)(C)OC21 (centres undefined) | 5.51 | 16.6 µM | 7.29 | 20.1 µM | 4.89 | 16.6 µM | < 0.0212 | 7.39 | 19.6 µM | 9.94 | 22.2 µM | 11.8 | 26.4 µM | 7.72 | 21.6 µM | 9.94 | 25.2 µM | 2.11 | 4.68 µM | 
2 | FC(F)(F)c1cccc(CNC2CCN(CCc3ccccc3)CC2)c1 | 16.9 | 34.3 µM | 11.2 | 47.1 µM | 55.6 | > 100 µM | 15.1 | 51.8 | > 100 µM |  |  | 62.4 | > 100 µM | 15.9 | 30.8 µM | 17.2 | 33.4 µM | 13.5 | 46.1 µM | 41.6 µM
3 | OC[C@H]1C[C@](O)(c2ccc(F)cc2)[C@@H](c2ccc(F)cc2)O1 | > 100 | > 100 µM | 66 | > 100 µM | > 100 | > 100 µM | > 100 | > 100 | > 100 µM | > 100 | > 100 µM | > 100 | > 100 µM | > 100 | > 100 µM | > 100 | > 100 µM | > 100 | > 100 µM | > 100 µM
4 | C=C(C)c1nc(Oc2ccccc2)nc(Oc2ccccc2)n1 |  | 17.2 µM |  | 10.8 µM |  | 16.4 µM |  |  | 21.5 µM |  | 32.8 µM |  | 36.7 µM |  | 22.3 µM |  | 23 µM |  | 12.9 µM | > 25.1 µM
5 | OCc1ccc(N2CCc3ccc(F)cc3C2)cc1Cl | 0.121 | 0.36 µM | 0.146 | 0.889 µM | 8.22 | 22.9 µM | 2.9 | 1.86 | 21 µM |  |  | 0.0267 | 0.114 µM | 8.69 | 22 µM | 0.0279 | 0.101 µM | 0.229 | 6.61 µM | 17.3 µM
6 | CN(c1ccccc1)c1c2ccccc2nc2[nH]c3ccccc3c12 | 3.45 | 16.1 µM | 1.79 | 6.46 µM | 1.68 | 5.06 µM | 0.336 | 6.4 | 28.7 µM | 5.04 | 21 µM | 1.91 | 4.44 µM | 3.26 | 9.25 µM | 6.54 | 21.4 µM | 3.83 | > 100 µM | > 100 µM
7 | CCOC(=O)C#Cc1c(C(=O)OCC)nnn1[C@@H]1O[C@H](COC)[C@@H](OC)[C@H]1OC | 1.94 | 3.83 µM | 2.8 | 7.61 µM | 3.81 | 14.6 µM | 1.64 | 12.3 | 26.3 µM | 16.3 | 32.9 µM | 1.65 | 3.18 µM | 12.1 | 24.5 µM | 3.38 | 8.29 µM | 2.86 | 6.49 µM | 4.66 µM
8 | CNCc1cccc2c1OCCOCCOCCNS(=O)(=O)c1ccc(cc1)-c1cnc(N)c(n1)C(=O)N2 | 1.02 | 2.44 µM | 3.05 | 14.7 µM | 1.22 | 3.79 µM | 0.346 | 2.22 | 7.72 µM | 2.83 | 11.2 µM | 2.21 | 8.09 µM | 1.35 | 2.74 µM | 1.93 | 4.68 µM | 1.31 | 3.76 µM | 13.3 µM
9 | N=C(N)SCc1ccc(Cl)c2ccccc12 (tested in a mixture with another compound) |  | 23.9 µM and 19.9 µM |  | 32.2 µM and 24.9 µM |  | 24.3 µM and 24.9 µM |  |  | 29 µM and 29.2 µM |  | 24.5 µM and 27.5 µM |  | 30.3 µM and 28.6 µM |  | 21.5 µM and 22.2 µM |  | 13.8 µM and 12.9 µM |  | 24.2 µM and 26.4 µM | 22.8 µM and 8.03 µM
10 | NS(=O)(=O)c1cc2c(cc1Cl)NCNS2(=O)=O |  | > 100 µM |  | > 100 µM |  | > 100 µM |  |  | > 100 µM |  | > 100 µM |  | > 100 µM |  | > 100 µM |  | > 100 µM |  | > 100 µM | > 100 µM
11 | COc1cc(NC(=O)COc2ccccc2)c(C(N)=O)cc1OC | 0.453 | 5.13 µM | 17.7 | 52.5 µM | 3.12 | > 100 µM | 0.515 | 1.32 | 20.4 µM |  |  | 42.8 | > 100 µM | 0.203 | 0.875 µM | > 100 | > 100 µM | 0.437 | > 100 µM | > 100 µM
12 | COc1ccc(Cn2c(Br)c3c(c2-c2cc(OC)c(OC)c(OC)c2)CCc2sc(N)nc2-3)cc1 | 1.07 | 3.7 µM | 0.477 | 2.88 µM | 2.15 | 14.2 µM | 0.41 | 2.69 | > 58.3 µM |  |  | 6.93 | > 50.6 µM | 0.224 | 0.537 µM | 11.8 | 51.3 µM | 0.731 | 5.48 µM | 5.67 µM
13 | COc1cc(/C=C/C(=O)c2nc3cc(F)ccc3nc2C)cc(OC)c1OC | 7.56 | > 100 µM | 2.81 | > 100 µM | 6.3 | > 100 µM | 1.85 | > 47.9 | > 100 µM | > 78.7 | > 100 µM | > 100 | > 100 µM | 3.55 | > 100 µM | 5.51 | > 100 µM | 3.75 | > 100 µM | > 100 µM
14 | COc1ccc(-n2c(=O)c3ccccc3n(Cc3ccc(C(=O)NO)cc3)c2=O)cc1 | 1.75 | 4.22 µM | 2.1 | 5.33 µM |  |  | 2.86 | 1.78 | 4.29 µM | 1.92 | 4.31 µM | 1.56 | 3.75 µM | 1.74 | 3.56 µM | 1.65 | 4.3 µM | 2.97 | 22.6 µM | > 100 µM
15 | COc1ccccc1CNCCCN1C(=O)c2ccc3c4c(ccc(c24)C1=O)C(=O)N(CCCNCc1ccccc1OC)C3=O | 0.121 | 0.256 µM | 0.243 | 0.847 µM | 0.151 | 0.305 µM | 0.264 | 0.179 | 0.443 µM | 0.168 | 0.343 µM | 0.362 | 1.32 µM | 0.179 | 0.349 µM | 0.184 | 0.349 µM | 0.136 | 0.425 µM | 0.928 µM
16 | COc1cc2c3c(n(CCCN)c(=O)c2cc1OC)-c1ccc(N)cc1C3=O | 0.554 | 10.2 µM | 2.3 | 15.3 µM | 2.98 | 27.3 µM | 0.152 | 1.62 | 9.75 µM | 9.15 | > 30.9 µM | 2.85 | 14.5 µM | 3.06 | 17 µM | 13.7 | 50.3 µM | 2.41 | 18.2 µM | 1.45 µM
17 | O=C1NC(=NCc2cccs2)O/C1=C\c1ccc2ncccc2c1 | 5.2 | 12.8 µM | 1.51 | 9.66 µM | 5.86 | > 25 µM | 2.58 | 7.9 | > 25 µM |  |  | 5.82 | > 19.8 µM | 4.51 | 14.4 µM | 3.74 | 12.4 µM | 6.12 | 21.2 µM | 10.7 µM
18 | COc1cc2c(cc1C)NC(=O)/C2=C\c1ccc(Oc2ccccc2)cc1 | 20.7 | 36.9 µM | 2.03 | 9.19 µM | 14.4 | 27.5 µM | 0.0697 | 15.6 | 32.2 µM | 12.9 | 27 µM | 16.7 | 32.6 µM | 17.8 | 38.1 µM | 17.7 | 34 µM | 12.2 | 25.6 µM | 2.1 µM
19 | CN(C)c1ccc(/C=N/N=C(\C#N)[S][Sn]([Cl])([c]2ccccc2)[c]2ccccc2)cc1 | 1.64 | 3.52 µM | 1.42 | 2.87 µM | 1.59 | 3.12 µM | 1.57 | 1.44 | 3.21 µM | 1.67 | 4.12 µM | 1.82 | 3.46 µM | 1.5 | 3.01 µM | 1.52 | 2.95 µM | 2.08 | 4.18 µM | 8.57 µM
20 | N#CC1=C(N)Oc2c(ccc3ccccc23)C1c1cc2ccccc2n2nnnc12 (centres undefined) | 2.69 | 7.32 µM | 0.49 | 7.47 µM | 0.99 | > 100 µM | 0.232 | 3.45 | > 100 µM | 5.8 | > 100 µM | 3.08 | > 100 µM | 0.3 | 1.01 µM | 9.09 | > 100 µM | 3 | > 100 µM | > 100 µM
21 | CN1CCN(C(=O)/C=C/c2ccc([N+](=O)[O-])o2)CC1 | 3.76 | 15 µM | 11.4 | 26.1 µM | 13.8 | 27.9 µM | 4.23 | 8.49 | 22 µM | 23.2 | 87.6 µM | 22.4 | 60 µM | 3.12 | 14.9 µM | 7.78 | 21.2 µM | 9.81 | 37 µM | 75.1 µM
22 | O=C1c2ccccc2N1C(=O)c1ccccc1[N+](=O)[O-] |  | > 100 µM |  | > 100 µM |  |  |  |  | > 100 µM |  | > 100 µM |  | > 100 µM |  | > 100 µM |  | > 100 µM |  | > 100 µM | > 100 µM
23 | O=C(NO)c1ccc(CNc2cccc3nc(C4CC4)n(-c4ccccc4)c(=O)c23)cc1 | 2.22 | 5.59 µM | 1.99 | 6.82 µM | 2.4 | 10.9 µM | 0.877 |  |  | 2.55 | 7.43 µM | 2.93 | 15 µM | 1.86 | 3.91 µM | 1.82 | 4.76 µM | 2.16 | 5.62 µM | > 100 µM
24 | COc1cc2c(cc1OCCN1CCN(CCN3C(=O)c4cccc5cccc(c45)C3=O)CC1)N=C[C@@H]1CCCN1C2=O | 24.8 | 44.8 µM |  |  | 23.2 | 58.6 µM | 19.7 | 13 | 25.6 µM | 21.1 | 45.7 µM | 20.1 | 40.3 µM | 23.4 | 48.7 µM | 21.1 | 48.3 µM | 22.6 | 43.9 µM | 41.8 µM
25 | COc1ccc([C@@H]2[C@@H](Oc3ccccc3)C(=O)N2c2cc(OC)c(OC)c(OC)c2)cc1F | 0.235 | 0.972 µM | 0.722 | > 100 µM | 0.383 | > 100 µM | 0.0778 | 0.7 | > 100 µM | 0.465 | > 100 µM | 0.99 | > 100 µM | 0.0264 | 0.076 µM |  |  | 0.211 | 0.684 µM | > 100 µM
26 | O=c1c(Oc2ccc(F)cc2F)cc2cnc(NC3CCOCC3)nc2n1C1CC1 | > 25 | > 25 µM | 0.172 | 10.6 µM | > 25 | > 25 µM | > 25 | > 25 | > 25 µM |  |  | > 22.9 | > 25 µM | > 25 | > 25 µM | > 25 | > 25 µM | > 25 | > 25 µM | > 25 µM
27 | CCN1CCN(CC(=O)Nc2nc3ccc(NCc4ccc(Br)cc4)cc3s2)CC1 |  |  | 1.21 | 3.04 µM | 2.73 | > 100 µM | 2.42 | 3.22 | > 100 µM | 3.02 | > 100 µM | 7.89 | > 100 µM | 1.69 | 3.23 µM | 2.28 | 5.14 µM |  |  | > 100 µM
